From ChEMBL document CHEMBL1201862, “PubChem BioAssay data set” (2004)
Activity calls are given as the source filed them.

Assays:
[1] = Luminescence Cell-Based Dose Response HTS to Identify Activators of Luciferase Translation or Activity in H4 […] Cells. [Related pubchem assays: 1829 (Project Summary), 1814 (Primary HTS)]; type: functional
[2] = target: Nuclear receptor subfamily 0 group B member 1 (Homo sapiens, UniProt P51843); test: Luminescence-based cell-based high throughput dose response assay for inhibitors of the orphan nuclear receptor subfamily 0, group B, member 1 (DAX1; NR0B1). [Related pubchem assays (depositor defined):AID504766, AID504790]; type: functional
HEK293 = test: cells; type: functional, cell-based; details: Homo sapiens
[3] = Luminescence Cell-Based Dose Confirmation HTS to Identify Activators of 5'UTR Stem-Loop Driven Alpha-Synuclein mRNA Translation in H4 Neuroglioblastoma Cells. [Related pubchem assays: 1829 (Project Summary), 1814 (Primary HTS)]; type: functional
H4 = test: Luminescence Cell-Based Dose Response HTS to Identify Activators of 5'UTR Stem-Loop Driven Prion Protein mRNA Translation in H4 Neuroglioblastoma Cells. [Related pubchem assays: 1829 (Project Summary), 1814 (Primary HTS)]; type: functional; details: Homo sapiens
[4] = target: Protein disulfide-isomerase (Homo sapiens, UniProt P07237); test: inhibition of PDI-driven insulin aggregation – biochemical, turbidity, absorbance, cherry-picked samples, dose response (AID 602350); type: functional
Vero [5] = test: cells; type: functional, cell-based; details: Chlorocebus sabaeus
Vero [6] = test: cells; type: functional; details: Chlorocebus sabaeus
[7] = viability of HCT116 lacking mutant beta-catenin – cell-based, human colon tumor, dose response (AID 1045); type: functional;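 also: HCT116 colon tumor cells with beta catenin knocked out; cells exposed to compound for 60 hours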
[8] = target: T1, Microphthalmia-associated transcription factor (Homo sapiens, UniProt O75030); test: reducers of TRPM1 reporter luminescence, concentration series – cell-based, SK-MEL-5, cherry-picked, set 3, MITF inhibitor project, dose response (AID 493073); type: functional;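 also: SK-MEL-5 melanoma cells with luciferase driven by the MITF target TRPM1 promoter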
T1 sequence (O75030 whole entry): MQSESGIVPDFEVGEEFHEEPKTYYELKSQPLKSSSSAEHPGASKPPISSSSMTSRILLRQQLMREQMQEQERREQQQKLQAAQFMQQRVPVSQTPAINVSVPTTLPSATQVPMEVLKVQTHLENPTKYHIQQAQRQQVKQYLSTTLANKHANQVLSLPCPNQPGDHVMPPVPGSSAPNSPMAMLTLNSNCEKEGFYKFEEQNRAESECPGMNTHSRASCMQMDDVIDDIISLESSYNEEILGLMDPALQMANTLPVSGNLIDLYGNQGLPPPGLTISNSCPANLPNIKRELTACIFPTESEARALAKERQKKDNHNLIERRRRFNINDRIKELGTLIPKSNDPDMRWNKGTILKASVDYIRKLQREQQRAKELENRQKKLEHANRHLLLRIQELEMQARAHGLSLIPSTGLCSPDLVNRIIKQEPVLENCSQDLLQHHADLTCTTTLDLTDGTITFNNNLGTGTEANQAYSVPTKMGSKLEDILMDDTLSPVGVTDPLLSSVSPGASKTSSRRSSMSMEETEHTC

[9] = target: Beta-2 adrenergic receptor (Homo sapiens, UniProt P07550); test: ADRB2 activation measured by internalization – cell-based, FAP fluorogen, flow cytometry, cherry pick 1, dose response (AID 588763); type: functional
[10] = viability of PTEN-deleted HCT116 cells – cell-based, HCT116 PTEN knockout, dose response (AID 1047); type: functional;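 also: HCT116 colon tumor cells with PTEN knocked out; cells exposed to compound for 60 hours before readout; potency for loss of cell viability measured by luminescence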
[11] = target: Melanin-concentrating hormone receptor 1 (Homo sapiens, UniProt Q99705); test: Late-stage fluorescence-based counterscreen for antagonists of the G-protein coupled receptor 7 (GPR7): cell-based dose response assay to identify antagonists of the melanin-concentrating hormone receptor 1 (MCHR1) Set 5.; type: functional
Melanin-concentrating hormone receptor 1, sequence (Q99705 whole entry): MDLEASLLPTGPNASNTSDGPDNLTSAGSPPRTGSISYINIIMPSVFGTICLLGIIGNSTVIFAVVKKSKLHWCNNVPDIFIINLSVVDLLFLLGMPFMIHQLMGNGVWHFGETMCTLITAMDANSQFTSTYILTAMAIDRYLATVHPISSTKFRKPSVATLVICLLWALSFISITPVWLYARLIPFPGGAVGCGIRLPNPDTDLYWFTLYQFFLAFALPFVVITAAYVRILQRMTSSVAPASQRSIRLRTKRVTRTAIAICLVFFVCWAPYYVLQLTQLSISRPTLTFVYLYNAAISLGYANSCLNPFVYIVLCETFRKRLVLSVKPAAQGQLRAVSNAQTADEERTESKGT

Beta-2 adrenergic receptor, sequence (P07550 whole entry): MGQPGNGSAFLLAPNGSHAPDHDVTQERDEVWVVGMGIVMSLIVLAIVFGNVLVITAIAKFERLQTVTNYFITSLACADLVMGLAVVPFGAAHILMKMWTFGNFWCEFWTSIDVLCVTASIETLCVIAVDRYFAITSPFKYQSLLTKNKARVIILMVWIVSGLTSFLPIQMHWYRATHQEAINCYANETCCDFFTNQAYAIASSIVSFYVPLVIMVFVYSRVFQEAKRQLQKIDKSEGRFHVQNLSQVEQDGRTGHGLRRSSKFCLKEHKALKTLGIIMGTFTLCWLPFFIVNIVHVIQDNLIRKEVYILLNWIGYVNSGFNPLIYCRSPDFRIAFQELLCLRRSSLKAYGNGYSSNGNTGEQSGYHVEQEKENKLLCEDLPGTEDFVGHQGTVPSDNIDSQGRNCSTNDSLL
Protein disulfide-isomerase, sequence (P07237 whole entry): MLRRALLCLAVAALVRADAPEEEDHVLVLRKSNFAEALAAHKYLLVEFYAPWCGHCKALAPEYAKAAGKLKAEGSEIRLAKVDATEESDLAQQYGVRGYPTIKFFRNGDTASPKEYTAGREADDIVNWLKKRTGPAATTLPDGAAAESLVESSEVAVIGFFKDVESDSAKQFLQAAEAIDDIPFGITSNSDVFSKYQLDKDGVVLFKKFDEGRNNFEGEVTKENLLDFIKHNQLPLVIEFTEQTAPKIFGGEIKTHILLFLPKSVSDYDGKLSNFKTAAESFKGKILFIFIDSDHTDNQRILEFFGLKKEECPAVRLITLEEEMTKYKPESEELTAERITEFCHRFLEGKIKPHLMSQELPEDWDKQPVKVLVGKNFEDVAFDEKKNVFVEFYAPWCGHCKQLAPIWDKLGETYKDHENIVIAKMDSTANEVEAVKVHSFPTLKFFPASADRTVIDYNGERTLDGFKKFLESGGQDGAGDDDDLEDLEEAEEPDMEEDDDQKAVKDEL
Nuclear receptor subfamily 0 group B member 1, sequence (P51843 whole entry): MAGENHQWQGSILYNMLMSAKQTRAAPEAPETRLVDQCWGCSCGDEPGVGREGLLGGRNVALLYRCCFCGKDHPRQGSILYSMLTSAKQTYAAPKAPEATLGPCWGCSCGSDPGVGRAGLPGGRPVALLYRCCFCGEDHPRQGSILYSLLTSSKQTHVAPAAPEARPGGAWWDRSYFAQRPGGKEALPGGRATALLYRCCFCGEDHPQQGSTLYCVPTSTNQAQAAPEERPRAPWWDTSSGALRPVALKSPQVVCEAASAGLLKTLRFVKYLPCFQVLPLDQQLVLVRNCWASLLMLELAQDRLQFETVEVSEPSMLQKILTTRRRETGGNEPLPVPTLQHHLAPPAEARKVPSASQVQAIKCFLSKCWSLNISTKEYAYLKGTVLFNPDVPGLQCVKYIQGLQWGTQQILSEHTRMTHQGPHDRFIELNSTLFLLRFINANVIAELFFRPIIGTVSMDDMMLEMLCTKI

SMILES: Cc1ccccc1OCC(=O)Nc1ccc2c(c1)OCCO2
- EC50 [1]: 4.75 µM (active)
- IC50 [2]: > 67.5 µM (inactive)
- IC50 (HEK293): > 67.5 µM (inactive)
- EC50 [3]: 51.8 µM (active)
- EC50 (H4): 75.2 µM (active)

SMILES: C[C@H]1CN([C@@H](C)CO)C(=O)c2cc(NC(=O)Cc3cn(C)c4ccccc34)ccc2O[C@@H]1CN(C)S(=O)(=O)c1ccc(F)cc1
- AC50 [4]: 19.5 µM (active)

SMILES: Cc1ccccc1Cn1c(=N)n(CC(=O)c2ccc([N+](=O)[O-])cc2)c2ccccc21
- IC50 (Vero [5]): > 25 µM (active)
- CC50 (Vero [6]): 14 µM (active)
- EC50 [7]: 8.1 µM (active)
- AC50 [8]: 5.63 µM (active)
- EC50 [9]: 15.2 µM (inactive)
- EC50 [10]: 9.32 µM (active)

SMILES: CCSc1nnc([C@H](Cc2c[nH]c3ccccc23)NC(=O)OC(C)(C)C)o1
- AC50 [4]: 19.5 µM (active)

SMILES: CC(=O)Nc1ccc(S(=O)(=O)NCCc2csc(-c3cccnc3)n2)cc1
- EC50 [9]: 0.162 µM (active)

SMILES: CSc1ccc(Oc2c(Cl)cnn(Cc3cccc4ccccc34)c2=O)cc1
- IC50 [11]: 1.22 µM (active)
